This passage reports IC50 results from patent publication US20230054458A1, “ANTI-CLAUDIN ANTIBODY-DRUG CONJUGATE AND PHARMACEUTICAL USE THEREOF” (JIANGSU HENGRUI MEDICINE CO., LTD., priority 2019, published 2023).

One assay relates to SK-BR-3 tumor cells. The assay can be described thus: Inhibition of in vitro proliferation of SK-BR-3 tumor cells (CTG). In kind it is cell-based. Conditions: Homo sapiens, SK-BR-3, 144 h, read-out: IC50 (nM) SK-BR-3. The method, then: (§1) This experiment was intended to test the inhibitory activity of the pharmaceutical compounds of the present disclosure against the in vitro proliferation of U87MG cells (glioma cells, Cell Bank, Chinese Academy of Sciences, Catalog #TCHu138) and SK-BR-3 tumor cells (human breast cancer cells, ATCC, Catalog #HTB-30). The cells were treated in vitro with a compound at different concentrations. After 6 days of culture, the proliferation of cells was tested using CTG (CellTiter-Glo® Luminescent Cell Viability Assay, Promega, Catalog #G7573) reagents, and the in vitro activity of the compound was evaluated according to the IC50 value.
(§2) The method of testing the inhibition of the in vitro proliferation of U87MG cells was described below as an example for the method of assaying for the inhibitory activity of the compounds of the present disclosure against the in vitro proliferation of tumor cells. The method is also applicable to, but not limited to, tests for inhibitory activity against the in vitro proliferation of other tumor cells.
(§3) 1. Cell culture: U87MG and SK-BR-3 cells were cultured in EMEM medium (GE, Catalog #SH30024.01) containing 10% FBS and McCoy's 5A medium (Gibco, Catalog #16600-108) containing 10% FBS, respectively.
(§4) 2. Preparation of cells. U87MG and SK-BR-3 cells growing at log phase were washed once with PBS (phosphate buffer, Shanghai BasalMedia Technologies Co., Ltd.) and then digested with 2-3 mL of trypsin (0.25% Trypsin-EDTA (1×), Gibico, Life Technologies) for 2-3 min. After the cells were completely digested, 10-15 mL of cell culture media were added to elute the digested cells. The mixtures were centrifuged at 1000 rpm for 5 min, and the supernatants were discarded. Then the cells were resuspended in 10-20 mL of cell culture media to give single-cell suspensions.
3. Cell plating. […]
(§5) 7. Plate reading. The 96-well cell culture plate was taken out and tested in a microplate reader (BMG labtech, PHERAstar FS) for chemiluminescence.
(§6) Data were processed and analyzed using Microsoft Excel and Graphpad Prism 5.

The test system of the next assay is U87MG cells. Nature of the assay: Inhibition of in vitro proliferation of U87MG cells (CTG). The assay is classed as cell-based. Conditions: Homo sapiens, U-87 MG, 144 h, read-out: IC50 (nM) U87. As to the method: as §1, §2, §3, §4
3. Cell plating. The U87MG and SK-BR-3 single-cell suspensions were each well mixed and adjusted with cell culture media to cell densities of 2.75×10^3 cells/mL and 8.25×10^3 cells/mL, respectively. The adjusted cell suspensions were each well mixed and added to 96-well cell culture plates at 180 μL/well. To each of the peripheral wells of the 96-well plates was added 200 μL of media only. The plate was incubated in an incubator for 24 h (37° C., 5% CO2).
4. Preparation of compounds. A compound was dissolved in DMSO (dimethyl sulfoxide, Shanghai Titan Scientific Co., Ltd.) to prepare a stock solution at an initial concentration of 10 mM.
Small molecule compounds were prepared at an initial concentration of 500 nM as follows.
Different test samples at concentration 100 μM (30 μL) were added to the first column of a 96-well U-bottom plate, and 20 μL of DMSO was added to each well of the second column through the eleventh column. The samples in the first column (10 μL) were added to the 20 μL of DMSO in the second column, and the mixtures were well mixed. The mixtures (10 μL) were added to the third column, and so on to the tenth column. The drugs in the plate (5 μL per well) were transferred to EMEM media (95 μL), and the mixtures were well mixed for later use.
5. Sample addition. The test samples prepared at different concentrations (20 μL) were added to a culture plate, with two duplicate wells set for each sample. […]
as §5, §6

Where [1] appears, read: in vitro proliferation, 6 days, CTG.

The structures appear in SMILES notation. Where two headings read alike, the source gives them in different places.

`CC[C@@]1(O)C(=O)OCc2c1cc1n(c2=O)Cc2c-1nc1cc(F)c(C)c3c1c2[C@@H](NC(=O)[C@H](O)C1CC1)CC3` [(R)-2-cyclopropyl-N-((1S,9S)-9-ethyl-5-fluoro-9-hydroxy-4-methyl-10,13-dioxo-2,3,9,10,13,15-hexahydro-1H,12H-benzo[de]pyrano[3′,4′:6,7]indolizino[1,2-b]quinolin-1-yl)-2-hydroxyacetamide]: the IC50 came to 0.33 nM with SK-BR-3 tumor cells (setting [1]) and 0.86 nM in the assay on U87MG cells (setting [1]). Consider `CC[C@@]1(O)C(=O)OCc2c1cc1n(c2=O)Cc2c-1nc1cc(F)c(C)c3c1c2[C@@H](NC(=O)C1(O)CC1)CC3` [Example 1, N-((1S,9S)-9-ethyl-5-fluoro-9-hydroxy-4-methyl-10,13-dioxo-2,3,9,10,13,15-hexahydro-1H,12H-benzo[de]pyrano[3′,4′:6,7]indolizino[1,2-b]quinolin-1-yl)-1-hydroxycyclopropane-1-carboxamide], for which the IC50 in the assay with SK-BR-3 tumor cells was found to be 0.12 nM; in the assay on U87MG cells, 0.23 nM. For `CC[C@@]1(O)C(=O)OCc2c1cc1n(c2=O)Cc2c-1nc1cc(F)c(C)c3c1c2[C@@H](NC(=O)C1(O)CCCC1)CC3` [Example 4, N-((1S,9S)-9-ethyl-5-fluoro-9-hydroxy-4-methyl-10,13-dioxo-2,3,9,10,13,15-hexahydro-1H,12H-benzo[de]pyrano[3′,4′:6,7]indolizino[1,2-b]quinolin-1-yl)-1-hydroxycyclopentane-1-carboxamide], the IC50 in the assay on SK-BR-3 tumor cells was determined as 1.9 nM. `CC[C@@]1(O)C(=O)OCc2c1cc1n(c2=O)Cc2c-1nc1cc(F)c(C)c3c1c2[C@@H](NC(=O)C1(CO)CC1)CC3` [Example 5, N-((1S,9S)-9-ethyl-5-fluoro-9-hydroxy-4-methyl-10,13-dioxo-2,3,9,10,13,15-hexahydro-1H,12H-benzo[de]pyrano[3′,4′:6,7]indolizino[1,2-b]quinolin-1-yl)-1-(hydroxymethyl)cyclopropane-1-carboxamide]: in the assay with U87MG cells, the IC50 is 4.81 nM. For `CC[C@@]1(O)C(=O)OCc2c1cc1n(c2=O)Cc2c-1nc1cc(F)c(C)c3c1c2[C@@H](NC(=O)C1(CO)CCC1)CC3` [Example 6, N-((1S,9S)-9-ethyl-5-fluoro-9-hydroxy-4-methyl-10,13-dioxo-2,3,9,10,13,15-hexahydro-1H,12H-benzo[de]pyrano[3′,4′:6,7]indolizino[1,2-b]quinolin-1-yl)-1-(hydroxymethyl)cyclobutane-1-carboxamide], the IC50 in the assay on U87MG cells (setting [1]) came out at 1.83 nM.

With `CC[C@@]1(O)C(=O)OCc2c1cc1n(c2=O)Cc2c-1nc1cc(F)c(C)c3c1c2[C@@H](NC(=O)C1(O)CCC1)CC3` [Example 7, N-((1S,9S)-9-ethyl-5-fluoro-9-hydroxy-4-methyl-10,13-dioxo-2,3,9,10,13,15-hexahydro-1H,12H-benzo[de]pyrano[3′,4′:6,7]indolizino[1,2-b]quinolin-1-yl)-1-hydroxycyclobutane-1-carboxamide], the IC50 with U87MG cells (setting [1]) was 1.95 nM.
